In ChEMBL document CHEMBL1136097, “Synthesis of the first examples of A-C8/C-C2 amide-Linked pyrrolo[2,1-c][1,4]benzodiazepine dimers” (Bioorg Med Chem Lett, 2003):

How the values were obtained:
[1] = In vitro inhibitory activity against human tumor cell line CHI; type: functional
A2780cisR = assay: In vitro inhibitory activity against human tumor cell line A2780cis; type: functional, cell-based
[2] = In vitro inhibitory activity against human tumor cell line CHIcis; type: functional
SK-OV-3 = assay: In vitro inhibitory activity against human tumor cell line SKOV-3; type: functional, cell-based
A2780 = assay: In vitro inhibitory activity against human tumor cell line A2780; type: functional, cell-based

IC50 [1]: > 25 µM | IC50 (A2780cisR): > 25 µM | IC50 [2]: > 25 µM | IC50 (SK-OV-3): > 25 µM | IC50 (A2780): > 25 µM
Compound: COc1cc2c(cc1OC)C(=O)N1C=C(CC(=O)Nc3ccc4c(c3)N=C[C@@H]3CCCN3C4=O)C[C@H]1C=N2
